# Assay results as given in patent US20240308984A1, “Jak Inhibitor With High Oral Bioavailability” (TECHNODERMA MEDICINES INC, priority 2021, published 2024).
# Read-outs that look alike come from different tables or passages of the source.
# Assay: Oral PK in rats, single oral dose, plasma concentration by LC-MS/MS
# Type: in vivo, Sprague Dawley (SD) rats
# Conditions: SD rats, single oral gavage 5 mg/kg, n=3; for AUC0-t: sampling up to 24 hours, plasma; for Cmax: 1 mg/mL solution in DMA:30% Solutol HS 15:Saline 10:10:80, plasma
# Protocol: Biological Description of Oral PK in Rats:
# In brief, the compounds were prepared in a solvent [DMA: 30% Solutol HS 15: Saline=10:10:80 (v/v/v)] to form clear solution formulations having a concentration of 1 mg/mL. Each test compound was administered to 3 rats (n=3) in single oral gavage (5 mg/kg). Approximately 150 μL of whole blood was taken from a subclavian vein of each experimental rat before administration and at 0.25, 0.5, 1, 2, 4, 8, 12, and 24 hours after administration, respectively, and was collected into an Eppendorf tube containing EDTA-K2, then 100 μL of the whole blood was added to an Eppendorf tube containing 300 μL of cyanomethane (ACN), mixed and then centrifuged to separate the plasma, and after it was ensured that there was no hemolysis in the samples, the plasma samples were stored in a freezer at −90° C. to −60° C. for analyses of drug concentrations in the samples via LC-MS/MS.
# Concentrations of compounds in the plasma samples were tested and analyzed via LC-MS/MS system (API4000: LC-MS-MS-001), 10 μL of the sample was mixed with 100 μL of ACN containing a standard, then 110 μL of water was added and the mixture was oscillated, and finally, 2 μL of the mixed solution was injected into the LC-MS/MS system.
# [1] = Sprague-Dawley, rat, read-out: Cmax
# [2] = Sprague-Dawley, rat, read-out: AUC0-t
Compound,AUC0-t [ng·h/mL],Cmax [ng/mL],Cmax [1] [ng/mL],AUC0-t [2] [ng·h/mL]
Cn1cc(Nc2nccc(-c3ccc(NS(=O)(=O)Cc4cccc(F)c4)cc3)n2)cn1 [Comparative Example 3],381,,,
CCNC(=O)c1ccc(Nc2nccc(-c3ccc(N(COC(=O)C(C)(C)C)C(=O)C4CC4(F)F)cc3)n2)cc1C (stereo not drawn) [Example 4],,,635,3090
Cn1cc(Nc2nccc(-c3ccc(NS(=O)(=O)Cc4cccc(C#N)c4)cc3)n2)cn1 [Comparative Example 2],47.4,20.2,,
CCNC(=O)c1ccc(Nc2nccc(-c3ccc(N(COC(=O)C(C)(C)C)C(=O)C4CC4(F)F)cc3)n2)cc1 (stereo not drawn) [Example 5],,,689,2710
"Cn1cc(Nc2nccc(-c3ccc(N(COC(=O)C(C)(C)C)C(=O)[C@@H]4CC4(F)F)nc3)n2)cn1 [Example 1, (S)-(2,2-difluoro-N-(5-(2-(((1-methyl-1H-pyrazol-4-yl)amino)pyrimidin-4-yl)pyridin-2-yl)cyclopropane-1-carboxamido)methyl pivalate]",1670,,,
CCNC(=O)c1ccc(Nc2nccc(-c3ccc(NC(=O)[C@@H]4CC4(F)F)cc3)n2)cc1 [Comparative Example 5],141,16.5,,
"Cn1cc(Nc2nccc(-c3ccc(N(COC(=O)C(C)(C)C)S(=O)(=O)Cc4cccc(C#N)c4)cc3)n2)cn1 [Example 2, (41-(3-cyanophenyl)-N-(4-(2-(((1-methyl-1H-pyrazol-4-yl)amino)pyrimidin-4-yl)phenyl)methyl)sulfonamido)methyl pivalate]",,,791,1580

# Results, then the molecule that gave them:
AUC0-t [ng·h/mL],Cmax [ng/mL],Cmax [1] [ng/mL],AUC0-t [2] [ng·h/mL],Compound
30.7,5.02,,,CCNC(=O)c1ccc(Nc2nccc(-c3ccc(NC(=O)[C@@H]4CC4(F)F)cc3)n2)cc1C [Comparative Example 4]
,,116,891,"Cn1cc(Nc2nccc(-c3ccc(NC(=O)[C@@H]4CC4(F)F)nc3)n2)cn1 [Comparative Example 1, (S)-2,2-difluoro-N-(5-(2-((1-methyl-1H-pyrazol-4-yl)amino)pyrimidin-4-yl)pyridin-2-yl)cycloprop-ane-1-carboxamide]"
,,1860,2890,Cn1cc(Nc2nccc(-c3ccc(N(COC(=O)C(C)(C)C)S(=O)(=O)Cc4cccc(F)c4)cc3)n2)cn1 [Example 3]
